Numbers after ± are expanded uncertainties.

The nature of this data set: activity coefficient (dimensionless); of the first substance listed, at infinite dilution; xn = mol fraction of the nth substance listed. As to conditions: 101 kPa, Liquid, Chromatography, x1 = 0.

On to `Cc1ccccc1C` [1,2-dimethylbenzene] + CCCC[N+]1(C)CCCC1.N#C[B-](C#N)(C#N)C#N, for which the activity coefficient (318.15 K) amounted to 1.34 ± 0.09; the activity coefficient (328.15 K) came out at 1.36 ± 0.09; the activity coefficient (338.15 K) was 1.39 ± 0.09; the activity coefficient (348.15 K) is 1.41 ± 0.09; the activity coefficient (358.15 K) came to 1.43 ± 0.09; the activity coefficient (368.15 K) came to 1.46 ± 0.1.

`Cc1cccc(C)c1` [1,3-dimethylbenzene] + CCCC[N+]1(C)CCCC1.N#C[B-](C#N)(C#N)C#N: the activity coefficient (318.15 K) is 1.54 ± 0.1; the activity coefficient (328.15 K) is 1.56 ± 0.1; the activity coefficient (338.15 K) worked out at 1.59 ± 0.11; the activity coefficient (348.15 K) is 1.62 ± 0.11; the activity coefficient (358.15 K) stood at 1.64 ± 0.11; the activity coefficient (368.15 K) stood at 1.66 ± 0.11.

With `Cc1ccc(C)cc1` [1,4-dimethylbenzene] + CCCC[N+]1(C)CCCC1.N#C[B-](C#N)(C#N)C#N, the activity coefficient reads like this: (318.15 K) 1.46 ± 0.1; (328.15 K) 1.49 ± 0.1; (338.15 K) 1.54 ± 0.1; (348.15 K) 1.58 ± 0.1; (358.15 K) 1.59 ± 0.11; (368.15 K) 1.62 ± 0.11.

Turning to `C=CCCCCCCCC` [1-decene] + CCCC[N+]1(C)CCCC1.N#C[B-](C#N)(C#N)C#N, the activity coefficient by setting is: (318.15 K) 29.7 ± 2; (328.15 K) 28.3 ± 1.9; (338.15 K) 27.1 ± 1.9; (348.15 K) 26.1 ± 1.8; (358.15 K) 23.5 ± 1.6; (368.15 K) 22.8 ± 1.6.

For `C=CCCCCC` [1-heptene] + CCCC[N+]1(C)CCCC1.N#C[B-](C#N)(C#N)C#N, the activity coefficient is 10.7 ± 0.7 (318.15 K); 10.2 ± 0.7 (328.15 K); 10 ± 0.7 (338.15 K); 9.72 ± 0.66 (348.15 K); 9.09 ± 0.62 (358.15 K); 8.93 ± 0.61 (368.15 K).

With `C#CCCCCC` [1-heptyne] + CCCC[N+]1(C)CCCC1.N#C[B-](C#N)(C#N)C#N, the activity coefficient by setting is: (318.15 K) 3.49 ± 0.24; (328.15 K) 3.5 ± 0.24; (338.15 K) 3.51 ± 0.24; (348.15 K) 3.53 ± 0.24; (358.15 K) 3.54 ± 0.24; (368.15 K) 3.56 ± 0.24.

On to `C#CCCCC` [1-hexyne] + CCCC[N+]1(C)CCCC1.N#C[B-](C#N)(C#N)C#N, for which the activity coefficient is 2.53 ± 0.17 (318.15 K); 2.56 ± 0.17 (328.15 K); 2.58 ± 0.18 (338.15 K); 2.63 ± 0.18 (348.15 K); 2.63 ± 0.18 (358.15 K); 2.68 ± 0.18 (368.15 K).

Take `C#CCCCCCC` [1-octyne] + CCCC[N+]1(C)CCCC1.N#C[B-](C#N)(C#N)C#N: the activity coefficient by setting is: (318.15 K) 4.93 ± 0.34; (328.15 K) 4.9 ± 0.33; (338.15 K) 4.88 ± 0.33; (348.15 K) 4.85 ± 0.33; (358.15 K) 4.81 ± 0.33; (368.15 K) 4.78 ± 0.33.

With `C=CCCC` [1-pentene] + CCCC[N+]1(C)CCCC1.N#C[B-](C#N)(C#N)C#N, the activity coefficient is, setting by setting: (318.15 K) 5.58 ± 0.38; (328.15 K) 5.32 ± 0.36; (338.15 K) 5.3 ± 0.36; (348.15 K) 5.24 ± 0.36; (358.15 K) 5.01 ± 0.34; (368.15 K) 5.02 ± 0.34.

Regarding `CC(C)CC(C)(C)C` [2,2,4-trimethylpentane] + CCCC[N+]1(C)CCCC1.N#C[B-](C#N)(C#N)C#N, the activity coefficient is 27.5 ± 1.9 (318.15 K); 25.4 ± 1.7 (328.15 K); 23.5 ± 1.6 (338.15 K); 22.5 ± 1.5 (348.15 K); 20.9 ± 1.4 (358.15 K); 20 ± 1.4 (368.15 K).

Consider `CCC(C)(C)C` [2,2-dimethylbutane] + CCCC[N+]1(C)CCCC1.N#C[B-](C#N)(C#N)C#N, for which the activity coefficient by setting is: (318.15 K) 15.7 ± 1.1; (328.15 K) 14 ± 1; (338.15 K) 13.2 ± 0.9; (348.15 K) 12.9 ± 0.9; (358.15 K) 12.1 ± 0.8; (368.15 K) 11.2 ± 0.8.

Regarding `CCC(C)(C)OC` [2-methoxy-2-methylbutane] + CCCC[N+]1(C)CCCC1.N#C[B-](C#N)(C#N)C#N, the activity coefficient reads like this: (318.15 K) 3.32 ± 0.23; (328.15 K) 3.34 ± 0.23; (338.15 K) 3.35 ± 0.23; (348.15 K) 3.36 ± 0.23; (358.15 K) 3.37 ± 0.23; (368.15 K) 3.39 ± 0.23.

For the compound `COC(C)(C)C` [2-methoxy-2-methylpropane] + CCCC[N+]1(C)CCCC1.N#C[B-](C#N)(C#N)C#N, the activity coefficient (318.15 K) is 2.37 ± 0.16; the activity coefficient (328.15 K) came to 2.39 ± 0.16; the activity coefficient (338.15 K) was found to be 2.46 ± 0.17; the activity coefficient (348.15 K) stood at 2.48 ± 0.17; the activity coefficient (358.15 K) was determined as 2.52 ± 0.17; the activity coefficient (368.15 K) was found to be 2.55 ± 0.17.

With `CCC(C)CC` [3-methylpentane] + CCCC[N+]1(C)CCCC1.N#C[B-](C#N)(C#N)C#N, the activity coefficient reads like this: (318.15 K) 14.9 ± 1; (328.15 K) 13.8 ± 0.9; (338.15 K) 13 ± 0.9; (348.15 K) 12.6 ± 0.9; (358.15 K) 11.8 ± 0.8; (368.15 K) 11.2 ± 0.8.

On to `CC(C)=O` [acetone] + CCCC[N+]1(C)CCCC1.N#C[B-](C#N)(C#N)C#N, for which the activity coefficient (318.15 K) stood at 0.439 ± 0.035; the activity coefficient (328.15 K) stood at 0.441 ± 0.035; the activity coefficient (338.15 K) was found to be 0.454 ± 0.036; the activity coefficient (348.15 K) came out at 0.464 ± 0.036; the activity coefficient (358.15 K) stood at 0.468 ± 0.037; the activity coefficient (368.15 K) was found to be 0.485 ± 0.037.

In the case of `c1ccccc1` [benzene] + CCCC[N+]1(C)CCCC1.N#C[B-](C#N)(C#N)C#N, the activity coefficient by setting is: (318.15 K) 0.81 ± 0.052; (328.15 K) 0.816 ± 0.053; (338.15 K) 0.836 ± 0.054; (348.15 K) 0.855 ± 0.055; (358.15 K) 0.87 ± 0.056; (368.15 K) 0.887 ± 0.056.

In the case of `CCCCO` [butan-1-ol] + CCCC[N+]1(C)CCCC1.N#C[B-](C#N)(C#N)C#N, the activity coefficient by setting is: (318.15 K) 1.88 ± 0.13; (328.15 K) 1.67 ± 0.11; (338.15 K) 1.55 ± 0.1; (348.15 K) 1.44 ± 0.09; (358.15 K) 1.33 ± 0.09; (368.15 K) 1.23 ± 0.08.

Take `C1CCCCCC1` [cycloheptane] + CCCC[N+]1(C)CCCC1.N#C[B-](C#N)(C#N)C#N: the activity coefficient reads like this: (318.15 K) 10.4 ± 0.7; (328.15 K) 9.7 ± 0.66; (338.15 K) 9.18 ± 0.63; (348.15 K) 8.85 ± 0.6; (358.15 K) 8.21 ± 0.56; (368.15 K) 7.78 ± 0.53.

For `C1CCCCC1` [cyclohexane] + CCCC[N+]1(C)CCCC1.N#C[B-](C#N)(C#N)C#N, the activity coefficient was found to be 8.42 ± 0.57 (318.15 K); 7.8 ± 0.53 (328.15 K); 7.45 ± 0.51 (338.15 K); 7.23 ± 0.49 (348.15 K); 6.75 ± 0.46 (358.15 K); 6.47 ± 0.44 (368.15 K).

On to `C1=CCCCC1` [cyclohexene] + CCCC[N+]1(C)CCCC1.N#C[B-](C#N)(C#N)C#N, for which the activity coefficient by setting is: (318.15 K) 4.09 ± 0.28; (328.15 K) 3.97 ± 0.27; (338.15 K) 3.93 ± 0.27; (348.15 K) 3.88 ± 0.26; (358.15 K) 3.73 ± 0.25; (368.15 K) 3.71 ± 0.25.

As for `C1CCCCCCC1` [cyclooctane] + CCCC[N+]1(C)CCCC1.N#C[B-](C#N)(C#N)C#N, the activity coefficient is 13.5 ± 0.9 (318.15 K); 12.5 ± 0.9 (328.15 K); 11.6 ± 0.8 (338.15 K); 11.2 ± 0.8 (348.15 K); 10.3 ± 0.7 (358.15 K); 9.76 ± 0.67 (368.15 K).

`C1CCCC1` [cyclopentane] + CCCC[N+]1(C)CCCC1.N#C[B-](C#N)(C#N)C#N: the activity coefficient was determined as 5.87 ± 0.4 (318.15 K); 5.47 ± 0.37 (328.15 K); 5.27 ± 0.36 (338.15 K); 5.18 ± 0.35 (348.15 K); 4.88 ± 0.33 (358.15 K); 4.72 ± 0.32 (368.15 K).

As to `CCCCCCCCCC` [decane] + CCCC[N+]1(C)CCCC1.N#C[B-](C#N)(C#N)C#N, the activity coefficient runs as follows: (318.15 K) 65.7 ± 4.5; (328.15 K) 59.5 ± 4.1; (338.15 K) 53.8 ± 3.7; (348.15 K) 50.4 ± 3.5; (358.15 K) 44.9 ± 3.1; (368.15 K) 42.1 ± 2.9.

For `CCOCC` [diethyl ether] + CCCC[N+]1(C)CCCC1.N#C[B-](C#N)(C#N)C#N, the activity coefficient is, setting by setting: (318.15 K) 2.32 ± 0.16; (328.15 K) 2.33 ± 0.16; (338.15 K) 2.34 ± 0.16; (348.15 K) 2.36 ± 0.16; (358.15 K) 2.37 ± 0.16; (368.15 K) 2.39 ± 0.16.

Consider `CC(C)OC(C)C` [diisopropyl ether] + CCCC[N+]1(C)CCCC1.N#C[B-](C#N)(C#N)C#N, for which the activity coefficient (318.15 K) came out at 6.08 ± 0.41; the activity coefficient (328.15 K) worked out at 5.94 ± 0.4; the activity coefficient (338.15 K) worked out at 5.91 ± 0.4; the activity coefficient (348.15 K) was found to be 5.82 ± 0.4; the activity coefficient (358.15 K) worked out at 5.75 ± 0.39; the activity coefficient (368.15 K) stood at 5.68 ± 0.39.

Turning to `CCCOCCC` [dipropyl ether] + CCCC[N+]1(C)CCCC1.N#C[B-](C#N)(C#N)C#N, the activity coefficient is, setting by setting: (318.15 K) 5.78 ± 0.39; (328.15 K) 5.65 ± 0.39; (338.15 K) 5.51 ± 0.38; (348.15 K) 5.42 ± 0.37; (358.15 K) 5.33 ± 0.36; (368.15 K) 5.26 ± 0.36.

As for `CCO` [ethanol] + CCCC[N+]1(C)CCCC1.N#C[B-](C#N)(C#N)C#N, the activity coefficient (318.15 K) came out at 1.29 ± 0.08; the activity coefficient (328.15 K) was determined as 1.17 ± 0.07; the activity coefficient (338.15 K) amounted to 1.09 ± 0.07; the activity coefficient (348.15 K) turned out to be 1.02 ± 0.06; the activity coefficient (358.15 K) stood at 0.95 ± 0.06; the activity coefficient (368.15 K) amounted to 0.894 ± 0.057.

The values are drawn from the NIST ThermoML archive (doi:10.1016/j.jct.2011.06.007).
